From PubChem BioAssay (NCI)
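Grown in 96-well plates, cells were treated for 48 hours with each compound at five concentrations. Insufficient inhibition: endpoint recorded as highest concentration tested. Abbreviation: GI50, concentration required for 50% inhibition of growth. Definition used: TGI = concentration required for complete inhibition of growth.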

Key:
Test in all cases: NCI anticancer screen, dose series, 48 h
OVCAR-5 ovarian = test system: OVCAR-5 ovarian
CCRF-CEM leukemia = test system: CCRF-CEM leukemia
NCI-H23 lung = test system: NCI-H23 lung
U251 CNS = test system: U251 CNS
OVCAR-8 ovarian = test system: OVCAR-8 ovarian
OVCAR-4 ovarian = test system: OVCAR-4 ovarian
MALME-3M melanoma = test system: MALME-3M melanoma
A549 NSCLC = test system: A549 NSCLC
NCI-H226 lung = test system: NCI-H226 lung
RXF 393 renal = test system: RXF 393 renal

SMILES	GI50 (OVCAR-5 ovarian)	TGI (OVCAR-5 ovarian)	GI50 (CCRF-CEM leukemia)	TGI (CCRF-CEM leukemia)	GI50 (NCI-H23 lung)	TGI (NCI-H23 lung)	GI50 (U251 CNS)	TGI (U251 CNS)	GI50 (OVCAR-8 ovarian)	TGI (OVCAR-8 ovarian)	GI50 (OVCAR-4 ovarian)	TGI (OVCAR-4 ovarian)	GI50 (MALME-3M melanoma)	TGI (MALME-3M melanoma)	GI50 (A549 NSCLC)	TGI (A549 NSCLC)	GI50 (NCI-H226 lung)	TGI (NCI-H226 lung)	GI50 (RXF 393 renal)	TGI (RXF 393 renal)
COC(=O)[C@H](Cc1cn(C)cn1)NC(=O)[C@H](CC(=O)OCc1ccccc1)NC(=O)Nc1cc(C(F)(F)F)cc(C(F)(F)F)c1	17.2 µM	34.2 µM	9.81 µM	24.7 µM	15.8 µM	30.7 µM	2.61 µM	7.85 µM	4.49 µM	16.9 µM	11.6 µM	27.1 µM	3.28 µM	10.4 µM	11.6 µM	25.9 µM	16.3 µM	34.5 µM	–	–
COc1cc(-c2nn(-c3ccc(NC(=O)Nc4cc(C(F)(F)F)cc(C(F)(F)F)c4)cc3)cc2-c2ccncc2)ccc1Cl	1.91 µM	5.16 µM	2.13 µM	> 100 µM	2.01 µM	5.56 µM	1.8 µM	4.52 µM	2.48 µM	27.8 µM	2.78 µM	9.43 µM	–	–	2.47 µM	13 µM	1.92 µM	4.84 µM	1.61 µM	3.58 µM
CC1OC(n2cc(C(F)(F)F)c(=O)[nH]c2=O)C=CC1=O (stereo not drawn)	–	33.5 µM	–	–	–	33 µM	–	–	–	80 µM	–	26.8 µM	–	34.2 µM	–	> 100 µM	–	66.1 µM	–	–
c1ccc(C2=NOC3C4CCC(C4)C23)cc1 (stereo not drawn)	–	> 100 µM	–	> 100 µM	–	> 100 µM	–	> 100 µM	–	> 100 µM	–	> 100 µM	–	> 100 µM	–	> 100 µM	–	> 100 µM	–	–
O=C(NC1CC1)c1c(O)[nH]c(=S)[nH]c1=O	–	> 100 µM	–	> 100 µM	–	> 100 µM	–	> 100 µM	–	> 100 µM	–	> 100 µM	–	> 100 µM	–	> 100 µM	–	> 100 µM	–	–
Cc1ccc2c(c1)-c1c3c(nn1C)-c1ccccc1SC3O2 (stereo not drawn)	–	> 100 µM	–	> 100 µM	–	> 100 µM	–	> 100 µM	–	> 100 µM	–	–	–	> 100 µM	–	> 100 µM	–	–	–	> 100 µM
COC(=O)c1c(O)ccc(O)c1C(C(C)=O)C(C)=O	–	–	–	> 100 µM	–	> 100 µM	–	> 100 µM	–	> 100 µM	–	> 100 µM	–	> 100 µM	–	> 100 µM	–	–	–	> 100 µM
COc1ccc(OC)c(Nc2nc3nonc3nc2Nc2cccc(Br)c2)c1	2.56 µM	> 100 µM	0.608 µM	17.2 µM	0.41 µM	5.49 µM	0.577 µM	11.7 µM	1.02 µM	> 100 µM	0.867 µM	> 100 µM	0.471 µM	5.52 µM	0.713 µM	> 100 µM	0.588 µM	40.2 µM	–	–
C[P+]1(Cc2ccccc2)CCCC1	–	> 100 µM	–	> 100 µM	–	> 100 µM	–	> 100 µM	–	> 100 µM	–	–	–	> 100 µM	–	> 100 µM	–	> 100 µM	–	> 100 µM
COc1ccc(Cn2cc(COc3cc(/C=C/C(=O)c4cc(OC)c(OC)c(OC)c4)ccc3OC)nn2)cc1	–	–	3.14 µM	> 100 µM	31.3 µM	> 100 µM	3.8 µM	> 100 µM	3.06 µM	> 100 µM	7.04 µM	> 100 µM	25.7 µM	> 100 µM	3.09 µM	47.5 µM	2.91 µM	83.1 µM	2.29 µM	6.88 µM
O=C(/C=C/c1ccccc1)c1cccc2ccccc12	3.78 µM	17.4 µM	2.71 µM	17.8 µM	3.19 µM	11.9 µM	2.14 µM	6.02 µM	1.82 µM	3.97 µM	–	–	6.12 µM	22.4 µM	2.96 µM	10.3 µM	1.99 µM	6.32 µM	2.38 µM	8.04 µM
COc1cccc2c1C(=O)c1c(O)c3c(c(O)c1C2=O)C[C@@](O)(/C(CO)=N/NC(=O)CCCCCN1C(=O)C=CC1=O)C[C@@H]3O[C@H]1C[C@H](N)[C@H](O)[C@H](C)O1	4.04 µM	> 100 µM	0.334 µM	> 100 µM	0.927 µM	5.98 µM	0.325 µM	15.8 µM	1.14 µM	97.4 µM	2.25 µM	22 µM	0.395 µM	2.23 µM	–	–	0.56 µM	3.37 µM	0.984 µM	3.85 µM
O=C(Nc1ccncc1)C(=O)c1cn(S(=O)(=O)c2cccc(Cl)c2)c2ccccc12	11.5 µM	> 100 µM	–	–	4.65 µM	> 100 µM	5.78 µM	> 100 µM	7.98 µM	> 100 µM	7.51 µM	> 100 µM	18.7 µM	> 100 µM	22.4 µM	> 100 µM	13.6 µM	> 100 µM	4.34 µM	21.2 µM
Nc1ccccc1C#C/C=C\C#Cc1ccccc1C#CCO	16.8 µM	> 50 µM	–	–	1.83 µM	6.9 µM	7.41 µM	18.7 µM	8.36 µM	27.1 µM	14 µM	41.4 µM	–	–	11.2 µM	> 50 µM	–	–	9.25 µM	32.1 µM
COc1cccc(Nc2ncnc3cc(NC(=O)CCl)ccc23)c1	1.61 µM	3.02 µM	0.392 µM	2.16 µM	1.61 µM	3.92 µM	0.33 µM	1.12 µM	1.88 µM	5.16 µM	–	–	1.07 µM	2.51 µM	1.48 µM	3.11 µM	1.91 µM	4.55 µM	1.46 µM	2.94 µM
